The values that follow come from PubChem BioAssay (NCI).

Test systems include HCT-116 colon; HCT-15 colon; HS 578T breast; IGROV1 ovarian; OVCAR-8 ovarian; PC-3 prostate; SW-620 colon; UO-31 renal; HT29 colon.
What all share (assay): NCI tumour cell line growth inhibition, 48 h

Structures are written as SMILES.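 Results reflect a 48-hour exposure of cells in 96-well plates to compound at five concentrations. GI50 = concentration required for 50% inhibition of growth. TGI marks complete inhibition of growth.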 Where only a bound is given, the exact number is not on record here.

With `COc1cc2c(c(OC)c1OC)-c1ncc3c(OC)c(OC)c(OC)cc3c1C2`, the GI50 in the experiment on HCT-116 colon is 27.8 µM; in the experiment on HCT-15 colon, 28.6 µM; in the experiment on HS 578T breast, 29.9 µM; in the experiment on IGROV1 ovarian it was 34.1 µM; in the experiment with OVCAR-8 ovarian, 18.9 µM; with PC-3 prostate it was 33.7 µM. Further, the figures for the GI50 in the experiment on SW-620 colon and in the experiment on UO-31 renal were 37 µM and 18 µM, respectively. Further, the TGI in the experiment with HCT-116 colon was above 100 µM; in the experiment on HCT-15 colon, above 100 µM; with HS 578T breast it was 67.3 µM; with IGROV1 ovarian, 93 µM; with OVCAR-8 ovarian it was 58.2 µM; in the experiment with PC-3 prostate, above 100 µM. Also, the TGI was above 100 µM in the experiment on SW-620 colon and 47.2 µM with UO-31 renal.
As for `N/N=C1\C(=O)N(C2CCCCCC2)C(=O)C1C(=O)NC1CCCCCC1` (stereo not drawn), the TGI in the experiment on HCT-15 colon is 82.7 µM; in the experiment with HT29 colon it was above 100 µM; in the experiment with IGROV1 ovarian, above 100 µM; in the experiment with OVCAR-8 ovarian, above 100 µM; in the experiment with SW-620 colon it was above 100 µM; with UO-31 renal it was 42 µM.
In the case of `O=C(Cc1nc2ccccc2c(=O)n1-c1ccccc1Cl)c1ccncc1`, the TGI in the experiment on HCT-116 colon, in the experiment with HCT-15 colon, in the experiment on HT29 colon, in the experiment with IGROV1 ovarian, in the experiment on OVCAR-8 ovarian and with SW-620 colon was above 100 µM in each case. The molecule further showed a TGI in the experiment with UO-31 renal above 100 µM.
As for `N#Cc1ccccc1C(Cl)(Cl)c1cnccn1`, the TGI in the experiment on HT29 colon is above 100 µM; in the experiment with IGROV1 ovarian, above 100 µM; in the experiment with OVCAR-8 ovarian, 77 µM; in the experiment on SW-620 colon, above 100 µM; in the experiment with UO-31 renal it was above 100 µM.
As to `CCC[CH2][Sn]([Cl])([Cl])[CH2]CCC`, the GI50 in the experiment with HCT-116 colon was 1.17 µM; in the experiment on HCT-15 colon, 0.738 µM; with HT29 colon, 1.44 µM; in the experiment on IGROV1 ovarian it was 1.04 µM; in the experiment with OVCAR-8 ovarian it was 1.88 µM; with SW-620 colon it was 0.333 µM. Besides, the GI50 in the experiment with UO-31 renal was 1.39 µM. Further, the TGI with HCT-116 colon turned out to be 2.61 µM; in the experiment on HCT-15 colon, 2.24 µM; in the experiment with HT29 colon, 2.81 µM; in the experiment with IGROV1 ovarian it was 1.62 µM; in the experiment with OVCAR-8 ovarian, 7.02 µM; with SW-620 colon, 1.24 µM. This molecule returned a TGI in the experiment with UO-31 renal of 2.69 µM.
Take `CC1=C(C(=O)CC(=O)C(=O)Nc2cc(C)ccc2C)Sc2ccccc2N1`: the TGI in the experiment on HCT-116 colon, with HCT-15 colon, with HT29 colon, in the experiment with IGROV1 ovarian, with OVCAR-8 ovarian and in the experiment with SW-620 colon was above 100 µM each time. The TGI in the experiment with UO-31 renal was above 100 µM.
`CC(C)(C)c1cc(C(O)(C(F)(F)F)C(F)(F)F)c2c(c1)C(C(F)(F)F)(C(F)(F)F)OC(C)(C(C)(C)C)N2` (stereo not drawn): the TGI in the experiment on HCT-116 colon is 13.4 µM; with HCT-15 colon it was 14.5 µM; in the experiment with HT29 colon it was 22.7 µM; in the experiment on IGROV1 ovarian, above 100 µM; in the experiment on SW-620 colon, 44.6 µM; with UO-31 renal it was 21 µM.
As for `CCc1ccc(NC(=O)NC(=O)c2ccccc2[N+](=O)[O-])cc1Oc1ncc(Cl)cn1`, the TGI with HCT-116 colon was 3.62 µM; in the experiment with HCT-15 colon, above 100 µM; in the experiment on HT29 colon it was 0.854 µM; in the experiment with IGROV1 ovarian, above 100 µM; in the experiment with OVCAR-8 ovarian, above 100 µM; with PC-3 prostate, above 100 µM. The values for the TGI in the experiment on SW-620 colon and in the experiment on UO-31 renal were above 100 µM and 45.5 µM, respectively.
In the case of `COC/C=C\COC`, the TGI with HCT-116 colon, in the experiment with HCT-15 colon, in the experiment with HT29 colon, with IGROV1 ovarian, in the experiment on OVCAR-8 ovarian and in the experiment on SW-620 colon was above 100 µM in each case. This molecule registered a TGI with UO-31 renal above 100 µM.
Consider `CCOC(=O)C(=O)Nc1ccccc1C`, for which the TGI in the experiment with HCT-116 colon, in the experiment with HCT-15 colon, in the experiment with IGROV1 ovarian, in the experiment on OVCAR-8 ovarian, with SW-620 colon and with UO-31 renal was above 100 µM each time.
Take `CC(Oc1ccc2c(-c3ccccc3)cc(=O)oc2c1)C(=O)O` (stereo not drawn): the TGI in the experiment on HCT-116 colon, in the experiment on HT29 colon, in the experiment with IGROV1 ovarian, in the experiment with OVCAR-8 ovarian, in the experiment with SW-620 colon and in the experiment on UO-31 renal was above 100 µM in each case.
On to `CCNC(=O)COc1ccc(Br)cc1Br`, for which the TGI with HCT-116 colon, with HCT-15 colon, with HT29 colon, with IGROV1 ovarian, with SW-620 colon and in the experiment on UO-31 renal was above 100 µM each time.
As for `CC1=C[C@H]2c3c([nH]c4ccccc34)C(c3c[nH]c4ccccc34)[C@H]2CC1` (stereo partly drawn), the TGI worked out at 11.9 µM in the experiment with HCT-116 colon; 18.8 µM in the experiment on HCT-15 colon; 11.5 µM in the experiment on HT29 colon; 22.4 µM in the experiment with IGROV1 ovarian; 28 µM in the experiment with OVCAR-8 ovarian; 24.1 µM in the experiment with SW-620 colon.
Turning to `Nc1ccccc1C#C/C=C\C#Cc1ccc(OCCCNC(=O)c2cc3ccccc3[nH]2)cc1`, the GI50 with HCT-116 colon was 12.4 µM; with HCT-15 colon, above 100 µM; with HS 578T breast it was 15.1 µM; in the experiment with HT29 colon, 32 µM; with IGROV1 ovarian, 25.5 µM; in the experiment on OVCAR-8 ovarian it was 42.4 µM. Besides, the GI50 was above 100 µM in the experiment on SW-620 colon and 41.7 µM in the experiment with UO-31 renal. In addition, the TGI is 40.6 µM in the experiment with HCT-116 colon; above 100 µM with HCT-15 colon; above 100 µM with HS 578T breast; above 100 µM with HT29 colon; above 100 µM with IGROV1 ovarian; above 100 µM in the experiment on OVCAR-8 ovarian. The TGI in the experiment on SW-620 colon and with UO-31 renal was above 100 µM in each case.
Consider `C#Cc1cccc(N2C(=O)c3c(c(-c4ccccc4)c(-c4ccc(Cc5ccc(-c6c(-c7ccccc7)c7c(c(-c8ccccc8)c6-c6ccccc6)C(=O)N(c6cccc(C#C)c6)C7=O)cc5)cc4)c(-c4ccccc4)c3-c3ccccc3)C2=O)c1`, for which the TGI was above 100 µM with HCT-116 colon; above 100 µM in the experiment on HCT-15 colon; above 100 µM in the experiment on HT29 colon; 45.2 µM with IGROV1 ovarian; above 100 µM with OVCAR-8 ovarian; above 100 µM in the experiment on SW-620 colon. Also, in the experiment with UO-31 renal, the TGI is above 100 µM.
